ChEMBL document CHEMBL1136896, “Synthesis and biological evaluation of arylhydrazinocyanoacrylates and N-aryl pyrazolecarboxylates” (2009)

Key:
Format in all cases: functional
Brassica napus [1] = experiment: Herbicidal activity against Brassica napus at 1.5 kg/hectare administered postemergence of first true leaf measured after 10 days; settings: post-emergence, 240 h
Alternaria solani = experiment: Fungicidal activity against Alternaria solani assessed as inhibition of mycelium growth at 50 mg/L after 72 hrs
Medicago sativa [2] = experiment: Herbicidal activity against Medicago sativa at 1.5 kg/hectare administered postemergence of first true leaf measured after 10 days; settings: post-emergence, 240 h
Cladosporium cucumerinum = experiment: Fungicidal activity against Cladosporium cucumerinum assessed as inhibition of mycelium growth at 50 mg/L after 72 hrs
Cucumis sativus = experiment: Growth regulatory activity in cucumber assessed as root growth at 10 mg/L incubated in dark for 5 days
Amaranthus retroflexus [3] = experiment: Herbicidal activity against Amaranthus retroflexus at 1.5 kg/hectare administered preemergence of first true leaf measured after 10 days; settings: pre-emergence, 240 h
Digitaria sanguinalis [4] = experiment: Herbicidal activity against Digitaria sanguinalis (L.) Scop. at 1.5 kg/hectare administered preemergence of first true leaf measured after 10 days; settings: pre-emergence, 240 h
Amaranthus retroflexus [5] = experiment: Herbicidal activity against Amaranthus retroflexus at 1.5 kg/hectare administered postemergence of first true leaf measured after 10 days; settings: post-emergence, 240 h
Medicago sativa [6] = experiment: Herbicidal activity against Medicago sativa at 1.5 kg/hectare administered preemergence of first true leaf measured after 10 days; settings: pre-emergence, 240 h
Fusarium graminearum = experiment: Fungicidal activity against Gibberella zeae assessed as inhibition of mycelium growth at 50 mg/L after 72 hrs
[7] = test system: Botryosphaeria berengeriana; experiment: Fungicidal activity against Physalospora pyricola assessed as inhibition of mycelium growth at 50 mg/L after 72 hrs
Brassica napus [8] = experiment: Herbicidal activity against Brassica napus L. at 1.5 kg/hectare administered preemergence of first true leaf measured after 10 days; settings: pre-emergence, 240 h
Mycosphaerella arachidis = experiment: Fungicidal activity against Cercospora arachidicola assessed as inhibition of mycelium growth at 50 mg/L after 72 hrs
Digitaria sanguinalis [9] = experiment: Herbicidal activity against Digitaria sanguinalis at 1.5 kg/hectare administered postemergence of first true leaf measured after 10 days; settings: post-emergence, 240 h
Bel-7402 [10] = experiment: Antitumor activity against human Bel7402 cells at 1 uM/L after 72 hrs by MTT assay; settings: Bel-7402, 72 h
Bel-7402 [11] = experiment: Antitumor activity against human Bel7402 cells at 10 uM/L after 72 hrs by MTT assay; settings: Bel-7402, 72 h
Bel-7402 [12] = experiment: Antitumor activity against human Bel7402 cells at 100 uM/L after 72 hrs by MTT assay; settings: Bel-7402, 72 h
Bel-7402 [13] = experiment: Antitumor activity against human Bel7402 cells at 1000 uM/L after 72 hrs by MTT assay; settings: Bel-7402, 72 h
HL-60 [14] = experiment: Antitumor activity against human HL60 cells at 1 uM/L after 72 hrs by MTT assay; settings: HL-60, 72 h
HL-60 [15] = experiment: Antitumor activity against human HL60 cells at 10 uM/L after 72 hrs by MTT assay; settings: HL-60, 72 h
HL-60 [16] = experiment: Antitumor activity against human HL60 cells at 100 uM/L after 72 hrs by MTT assay; settings: HL-60, 72 h
HL-60 [17] = experiment: Antitumor activity against human HL60 cells at 1000 uM/L after 72 hrs by MTT assay; settings: HL-60, 72 h

SMILES | inhibition at 1500 g/ha (Brassica napus [1]) [%] | inhibition at 50 µg/mL (Alternaria solani) [%] | inhibition at 1500 g/ha (Medicago sativa [2]) [%] | inhibition at 50 µg/mL (Cladosporium cucumerinum) [%] | Activity (Cucumis sativus) [%] | inhibition at 1500 g/ha (Amaranthus retroflexus [3]) [%] | inhibition at 1500 g/ha (Digitaria sanguinalis [4]) [%] | inhibition at 1500 g/ha (Amaranthus retroflexus [5]) [%] | inhibition at 1500 g/ha (Medicago sativa [6]) [%] | inhibition at 50 µg/mL (Fusarium graminearum) [%] | inhibition at 50 µg/mL [7] [%] | inhibition at 1500 g/ha (Brassica napus [8]) [%] | inhibition at 50 µg/mL (Mycosphaerella arachidis) [%] | inhibition at 1500 g/ha (Digitaria sanguinalis [9]) [%] | further results
CCOCCOC(=O)c1c(C(C)C)nn(-c2ccc(C)cc2)c1N | 40.7 | 12 | 20 | 40 | 21.9 | 0 | 0 | 0 | 0 | 51.1 | 13.3 | 15 | 20.6 | 0 | –
CCOCCOC(=O)c1c(SC)nn(-c2ccc(C)cc2C)c1N | 24.1 | 8 | 0 | 10.9 | 42.2 | 0 | 0 | 0 | 0 | 46.7 | 9.3 | 0 | 35.3 | 0 | inhibition at 1 µM (Bel-7402 [10]): 0%; inhibition at 10 µM (Bel-7402 [11]): 0%; inhibition at 100 µM (Bel-7402 [12]): 0%; inhibition at 1000 µM (Bel-7402 [13]): 32.9%; inhibition at 1 µM (HL-60 [14]): 9.4%; inhibition at 10 µM (HL-60 [15]): 21%; inhibition at 100 µM (HL-60 [16]): 49.9%; inhibition at 1000 µM (HL-60 [17]): 43.5%
CC1COC(Cn2cncn2)(c2ccc(Oc3ccc(Cl)cc3)cc2Cl)O1 (stereo not given) [DIFENOCONAZOLE] | – | 100 | – | 100 | – | – | – | – | – | 100 | 100 | – | 100 | – | –
CCOCCOC(=O)c1c(SC)nn(-c2ccccc2)c1N | 53.6 | 8 | 38.3 | 12.7 | 50.4 | 10 | 0 | 32 | 0 | 42.2 | 0 | 0 | 41.2 | 0 | inhibition at 1 µM (Bel-7402 [10]): 0%; inhibition at 10 µM (Bel-7402 [11]): 0%; inhibition at 100 µM (Bel-7402 [12]): 0%; inhibition at 1000 µM (Bel-7402 [13]): 49%; inhibition at 1 µM (HL-60 [14]): 4.3%; inhibition at 10 µM (HL-60 [15]): 6.8%; inhibition at 100 µM (HL-60 [16]): 0.6%; inhibition at 1000 µM (HL-60 [17]): 10.6%
CCOCCOC(=O)/C(C#N)=C(/CC)NNc1cc(Cl)c(Cl)cc1Cl | 0 | 10 | 4.7 | 13.9 | -39 | 5.9 | 3.8 | 15.6 | 0 | 9.6 | 36 | 0 | 21.3 | 0 | inhibition at 1 µM (Bel-7402 [10]): 0%; inhibition at 10 µM (Bel-7402 [11]): 0%; inhibition at 100 µM (Bel-7402 [12]): 0%; inhibition at 1000 µM (Bel-7402 [13]): 94.5%; inhibition at 1 µM (HL-60 [14]): 8.3%; inhibition at 10 µM (HL-60 [15]): 11.8%; inhibition at 100 µM (HL-60 [16]): 7.3%; inhibition at 1000 µM (HL-60 [17]): 80.4%
CCOCCOC(=O)c1c(CC)nn(-c2ccc(Cl)cc2)c1N | 0 | 0 | 0 | 14.5 | 111.3 | 0 | 0 | 0 | 0 | 53.3 | 38.7 | 0 | 41.2 | 0 | –
CCOCCOC(=O)/C(C#N)=C(/CC)NNc1c(Cl)cccc1Cl | 11.1 | 10 | 2.3 | 0 | -6 | 8.8 | 0 | 22.7 | 0 | 0 | 24 | 5.3 | 24.4 | 0 | inhibition at 1 µM (Bel-7402 [10]): 11.5%; inhibition at 10 µM (Bel-7402 [11]): 17.1%; inhibition at 100 µM (Bel-7402 [12]): 54.6%; inhibition at 1000 µM (Bel-7402 [13]): 79.8%; inhibition at 1 µM (HL-60 [14]): 4.3%; inhibition at 10 µM (HL-60 [15]): 35.9%; inhibition at 100 µM (HL-60 [16]): 72.4%; inhibition at 1000 µM (HL-60 [17]): 80.4%
CCOCCOC(=O)c1c(C(C)C)nn(-c2ccccc2)c1N | 58.8 | 32 | 0 | 1.8 | 46.3 | 0 | 0 | 0 | 0 | 46.7 | 32 | 15 | 20.6 | 0 | –
CCOCCOC(=O)c1c(SC)nn(-c2ccc(C)cc2)c1N | 52.7 | 28 | 0 | 20 | 66.6 | 0 | 0 | 38 | 0 | 46.7 | 22.7 | 10 | 35.3 | 0 | –
CCOCCOC(=O)/C(C#N)=C(\NCc1ccc(Cl)nc1)SC | 100 | – | 55.3 | – | – | 32.4 | 18.8 | 100 | 3.6 | – | – | 47.6 | – | 54.1 | –
CCOCCOC(=O)c1c(CC)nn(-c2ccccc2)c1N | 61.5 | 20 | 0 | 18.2 | 46.3 | 0 | 0 | 0 | 0 | 46.7 | 1.3 | 0 | 35.3 | 0 | –
O=C(O)Cc1c[nH]c2ccccc12 [INDOLE-3-ACETIC ACID] | – | – | – | – | >150 | – | – | – | – | – | – | – | – | – | –
CCOCCOC(=O)c1c(C(C)C)nn(-c2ccc(Cl)cc2)c1N | 26.4 | 0 | 0 | 23.6 | 38.2 | 0 | 0 | 0 | 0 | 44.4 | 33.3 | 40 | 23.5 | 0 | –
CCOCCOC(=O)c1c(SC)nn(-c2ccc(Cl)cc2)c1N | 0 | 20 | 0 | 23.6 | 66.6 | 0 | 0 | 0 | 0 | 37.8 | 36 | 0 | 26.5 | 0 | –
